# Laboratory results published in patent US11591288B2, “Compositions and methods for treating atherosclerotic cardiovascular disease” (GAVISH-GALILEE BIO APPLICATIONS LTD., priority 2017, dated 2023).
# Legend:
# human serum PON1 = target: T1, human serum PON1 (Homo sapiens, UniProt P27169); assay: Human serum PON1 lactonase activity (dihydrocoumarin assay); format: biochemical; conditions: 4 h, 37° C., 1.8 units without lyso-DGTS
# T1 construct: tissue Industries biologic (Bet-Haemk, Israel); host or cells: human serum
# T1 sequence (P27169 whole entry): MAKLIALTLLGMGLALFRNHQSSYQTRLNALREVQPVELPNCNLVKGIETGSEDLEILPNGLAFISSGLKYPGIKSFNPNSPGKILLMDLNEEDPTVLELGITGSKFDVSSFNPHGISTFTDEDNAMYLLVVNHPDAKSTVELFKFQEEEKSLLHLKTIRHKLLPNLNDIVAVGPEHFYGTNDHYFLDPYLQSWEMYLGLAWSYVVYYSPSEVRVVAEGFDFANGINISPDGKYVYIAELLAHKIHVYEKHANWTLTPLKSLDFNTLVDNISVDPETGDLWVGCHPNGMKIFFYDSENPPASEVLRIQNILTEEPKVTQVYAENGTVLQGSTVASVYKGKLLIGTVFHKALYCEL
# Method: 200 μl of human serum diluted by 20 with phosphate-buffered saline (PBS) (PH=7.6) was incubated with lyso-DGTS at various concentrations (0, 1, 5, 10 and 50 μg/ml) for 4 h at 37° C. Then, 10 μl was taken to measure lactonase activity using the dihydrocoumarine assay.
# The effect of lyso-DGTS on lactonase activity of human serum PON1 was examined. Human serum was diluted by 20 with PBS buffer and incubated with and without lyso-DGTS at concentrations of 1, 5, 10, and 50 μg/ml for 4 h at 37° C. Lactonase activity of the enzyme was measured using dihydrocoumarin assay. As shown in Example 1, lyso-DGTS increased human serum lactonase activity in a dose dependent manner up to 10 μg/ml, from 1.8 units without lyso-DGTS to 2.16, 2.82, 3.01, and 2.80 units at 1, 5, 10 and 50 μg/ml lyso-DGTS, respectively. The change at 1 μg/ml of lyso-DGTS was not statistically significant (FIG. 2).
# HDL = assay: HDL-lyso-DGTS interaction, Trp fluorescence quenching; format: binding, human
# Method: FIGS. 10A-10B show tryptophan fluorescence spectra of HDL (0.03 mg/ml) incubated with/without lyso-DGTS at various concentrations (1, 5, 10, 25, 50, 75, and 100 μg/ml) in black 96-well plates for 4 h at 37° C. (10A) or 25° C. (10B). The fluorescence was measured at excitation/emission 290/320-340 nm. The ability of lyso-DGTS to elevate HDL activity correlates with its binding affinity to HDL. Each experiment repeated separately at least three times.
# HDL and LDL were isolated from human plasma samples by discontinuous density gradient ultracentrifugation and dialyzed against saline containing sodium ethylenediaminetetraacetic acid (EDTA; 1 mmol/L) to protect the lipoproteins against oxidation. Before generating the experiments, LDL and HDL were dialyzed twice, for 1 h each time, and once more overnight against PBS at 4° C. to remove EDTA.
# In order to test whether the protective effect of lyso-DGTS on HDL occurs via specific interaction between lyso-DGTS and the lipoprotein, the HDL-lyso-DGTS interaction was investigated by the Trp-fluorescence-quenching method. […] (FIG. 10A) and 25° C. (FIG. 10B) in the 300-450 nm range with an excitation wavelength of 290 nm. Lyso-DGTS quenched HDL fluorescence in a dose-dependent manner at both temperatures.
# Quenching pathways can be described by the Stem-Volmer equation (eq. 1 above). The Stern-Volmer curve was linear at the tested concentration of lyso-DGTS at both temperatures (with R>0.99 and p<0.0001). The Ksv values were (5.59±0.42)×10^3 M^−1 at 37° C. (FIG. 11A) and (4.83±0.59)×10^3 M^−1 at 25° C.
# The binding constant and binding sites were calculated as shown for rePON1, using eq. 2 above. […] (FIG. 11D). The values obtained for n were not affected by temperature and were equal to 1 (Table 5). The thermodynamic parameters: enthalpy (ΔH), entropy (ΔS), and free energy (ΔG) were calculated to characterize the HDL-lyso-DGTS interaction type.
smiles,measurement,setting,value
"CC/C=C\C/C=C\C/C=C\C/C=C\C/C=C\CCCC(=O)OCC(O)COCCC(C(=O)[O-])[N+](C)(C)C (centres unmarked) [lyso-DGTS, lyso-diacylglyceryltrimethylhornmoserine]",human serum PON1 lactonase activity,"human serum PON1; 1 μg/ml lyso-DGTS, change not statistically significant",2.16 units
same,human serum PON1 lactonase activity,human serum PON1; 5 μg/ml lyso-DGTS,2.82 units
same,human serum PON1 lactonase activity,human serum PON1; 10 μg/ml lyso-DGTS,3.01 units
same,human serum PON1 lactonase activity,human serum PON1; 50 μg/ml lyso-DGTS,2.80 units
same,"Stern-Volmer quenching constant Ksv, HDL",HDL; 25° C.,(4.83±0.59)×10^3 M^−1
same,"Stern-Volmer quenching constant Ksv, HDL",HDL; 37° C.,(5.59±0.42)×10^3 M^−1
same,"Binding constant Ka, lyso-DGTS-HDL",HDL; 298 K (25° C.),3780 M⁻¹
same,"Binding constant Ka, lyso-DGTS-HDL",HDL; 310 K (37° C.),21650 M⁻¹
